# Test results as given in patent publication US20200282008A1, “COMPOSITIONS AND METHODS FOR LONG TERM RELEASE OF GONADOTROPIN-RELEASING HORMONE (GnRH) ANTAGONISTS” (VERU INC., priority 2017, published 2020).
# Non-standard residues stand in square brackets, D forms with d. Residues, ends and D or L forms follow the SMILES beside them. dPhe(4-Cl) = N[C@H](Cc1ccc(Cl)cc1)C(=O)O; d2Nal = N[C@H](Cc1ccc2ccccc2c1)C(=O)O; dCit = NC(=O)NCCC[C@@H](N)C(=O)O; d3Pal = N[C@H](Cc1cccnc1)C(=O)O
# Tested on: serum testosterone
# Experiment: Second rat study: serum testosterone after cetrorelix PLGA formulations
# Type: in vivo, rats
# Protocol: In a second rat study serum testosterone and cetrorelix levels were measured over 12 weeks. […] The formulations found within Table 13 were injected in rats and then the testosterone was measured at 0, 1, 2, 8 and 24 hours and then daily until the end of the first week and then biweekly until week 4 and then weekly thereafter.
# FIG. 21 compares the data from the 2nd rat and 1st dog study results for testosterone levels.
smiles,measurement,value
CC(=O)N[C@H](Cc1ccc2ccccc2c1)C(=O)N[C@H](Cc1ccc(Cl)cc1)C(=O)N[C@H](Cc1cccnc1)C(=O)N[C@@H](CO)C(=O)N[C@@H](Cc1ccc(O)cc1)C(=O)N[C@H](CCCNC(N)=O)C(=O)N[C@@H](CC(C)C)C(=O)N[C@@H](CCCNC(=N)N)C(=O)N1CCC[C@H]1C(=O)N[C@H](C)C(N)=O [cetrorelix] (Ac-[d2Nal][dPhe(4-Cl)][d3Pal]SY[dCit]LRP[dA]-NH2),cetrorelix level required to inhibit testosterone production,2 ng/mL
